From patent US20240246984A1, “HETEROCYCLIC JAK INHIBITOR” (BEIJING INNOCARE PHARMA TECH CO., LTD., priority 2020, published 2024)
Read-outs that look alike come from different tables or passages of the source.

What was measured:
[1] = biological target: human recombinant JAK2 protein (Homo sapiens, UniProt O60674); experiment: JAK2 activity inhibition assay (HTRF kinase detection); assay type: biochemical; conditions: 2.5 μM ATP substrate solution
Protocol: The effect of the compounds of the present invention on the activity of JAK2 was assessed by using an in vitro kinase detection assay.
The enzymatic activity of JAK2 was assessed by detecting the substrate phosphorylation level in a kinase reaction with a homogeneous time-resolved fluorescence (HTRF) kinase detection kit (Cisbio, 62TK0PEC). A reaction buffer contained an enzyme buffer (1×), 5 mM MgCl2, 1 mM DTT and 0.01% Brij35 from the kit; a human recombinant JAK2 protein (Carna Biosciences, 08-045) was diluted to a kinase reaction solution of 0.15 ng/μL with the reaction buffer; a substrate reaction solution contained 2.5 μM ATP and a biotin-labeled tyrosine kinase substrate diluted to 0.25 μM with the reaction buffer; a detection buffer contained 0.1 ng/μL Eu^3+ labeled cage antibody (Cisbio, 61T66KLB) and 12.5 nM streptavidin-labeled XL665 (Cisbio, 610SAXLB) in the reaction buffer; the compound was dissolved to 10 μM in DMSO, followed by a serial 4-fold dilution with DMSO to a minimum concentration of 0.061 nM. Each concentration was further diluted 40-fold with the reaction buffer. To a 384-well assay plate (Corning, 3674) were added 4 μL of the compound solutions having a series of concentrations and 2 μL of JAK2 kinase reaction solutions. After being mixed evenly, the mixtures were incubated at room temperature for 15 minutes, and then 4 μL of the substrate reaction solutions were added. The reaction mixtures were incubated at room temperature for 30 minutes. Then the reaction mixtures were added with 10 μL of detection solutions, mixed evenly, and allowed to stand at room temperature for 30 minutes. An Envision plate reader (Perkin Elmer) was then used to measure the progress of the reaction at wavelengths of 620 nm and 665 nm. The signal value (absorbance at 665 nm/absorbance at 620 nm) was positively correlated with the degree of substrate phosphorylation, therefore the kinase activity of JAK2 was detected. In this assay, the group without JAK2 kinase protein was the 100% inhibition group, and the group with JAK2 kinase protein but without the test compound was the 0% inhibition group. The compound inhibition curve was plotted using XLfit software and the IC50 of its inhibition was calculated.

[2] = biological target: human recombinant TYK2 protein (Homo sapiens, UniProt P29597); experiment: TYK2 activity inhibition assay (HTRF kinase detection); assay type: biochemical; conditions: 11.25 μM ATP substrate solution
Protocol: The effect of the compounds of the present invention on the activity of TYK2 was assessed by using an in vitro kinase detection assay.
The enzymatic activity of TYK2 was assessed by detecting the substrate phosphorylation level in a kinase reaction with a homogeneous time-resolved fluorescence (HTRF) kinase detection kit (Cisbio, 62TK0PEC). A reaction buffer contained an enzyme buffer (1×), 5 mM MgCl2, 1 mM DTT and 0.01% Brij35 from the kit; a human recombinant TYK2 protein (Carna Biosciences, 08-147) was diluted to a kinase reaction solution of 0.25 ng/μL with the reaction buffer; a substrate reaction solution contained 11.25 μM ATP and a biotin-labeled tyrosine kinase substrate diluted to 0.5 μM with the reaction buffer; a detection buffer contained 0.1 ng/μL Eu^3+ labeled cage antibody (Cisbio, 61T66KLB) and 25 nM streptavidin-labeled XL665 (Cisbio, 610SAXLB) in the reaction buffer; the compound was dissolved to 10 μM in DMSO, followed by a serial 4-fold dilution with DMSO to a minimum concentration of 0.061 nM. Each concentration was further diluted 40-fold with the reaction buffer. To a 384-well assay plate (Corning, 3674) were added 4 μL of the compound solutions having a series of concentrations and 2 μL of kinase reaction solutions. After being mixed evenly, the mixtures were incubated at room temperature for 15 minutes, and then 4 μL of the substrate reaction solutions were added. The reaction mixtures were incubated at room temperature for 40 minutes. Then the reaction mixtures were added with 10 μL of detection solutions, mixed evenly, and allowed to stand at room temperature for 30 minutes. An Envision plate reader (Perkin Elmer) was then used to measure the progress of the reaction at wavelengths of 620 nm and 665 nm. The signal value (absorbance at 665 nm/absorbance at 620 nm) was positively correlated with the degree of substrate phosphorylation, therefore the kinase activity of TYK2 was detected. In this assay, the group without TYK2 kinase protein was the 100% inhibition group, and the group with TYK2 kinase protein but without the test compound was the 0% inhibition group. The compound inhibition curve was plotted using XLfit software and the IC50 of its inhibition was calculated.

[3] = tested on: IL-12-induced IFN-γ secretion in NK92 cells; experiment: Inhibition of IL-12-induced IFN-γ secretion in NK92 cells (ELISA); assay type: cell-based; conditions: Homo sapiens, IL-12 stimulation, 24 hours, read-out: IC50 (NK92IL12/IFN-γ)
Protocol: The effect of the compounds of the present invention on IFN-γ secretion in IL-12-induced NK92 cells was evaluated by an enzyme-linked immunosorbent assay (ELISA).
The assay principle was generally described below: IL-12R was mainly expressed in activated T-cells, NK cells (NK92 was an NK cell line), DC cells, and B-cells. When binding to IL-12, it activated the JAK2/TYK2 signal transduction pathway within NK cells and activated T lymphocytes, thereby inducing secretion of IFN-γ.
The compound was dissolved to 2.5 mM in DMSO, followed by a serial 4-fold dilution with DMSO to a minimum concentration of 0.31 μM. Each concentration was further diluted 50-fold with an FBS-free MEMα medium (Thermofisher. 12561-056).
NK92 cells (Nanjing Cobioer, CBP60980) were cultured in a complete MEMα medium containing 12.5% FBS (Ausbian, VS500T), 12.5% horse serum (Thermofisher, 16050-122), 0.02 mM folic acid (Sigma, F8758), 0.2 mM inositol (Sigma, 17850), 0.55 mM β-mercaptoethanol (Thermofish, 21985-023), 200 U/mL IL-2 (R&D Systems, 202-1L), and 100 U/mL penicillin-streptomycin mixed liquor (ThermoFisher, 15140122). When covering 80-90% of the culture container surface, the cells were dispersed and plated on a 96-well plate (ThermoFisher, 167425) with 100,000 cells per well (80 μL of the complete MEMα medium without IL-2). The 96-well plate was then incubated overnight in a 37° C., 5% CO2 incubator.
After overnight incubation, 10 μL of the compound and 10 μL of 50 ng/ml IL-12 (R &D Systems, 219-1L) were added to each well and mixed gently, and the 96-well plate was incubated in the 37° C., 5% CO2 incubator for additional 24 hours. The plate was centrifuged at 800 rpm for 10 minutes at room temperature and 50 μL of the supernatant from each well was transferred to another 96-well plate (Sigma, CLS3695) coated with anti-IFN-γ antibody. The amount of IFN-γ secretion was detected following the instruction from the Human IFN-γ DuoSet ELISA assay kit (R & D Systems, DY285B). In this assay, the group in which IL-12 and the test compound were replaced with the MEMα medium was the non-stimulated control group (100% inhibition), and the group with IL-12 and 0.2% DMSO was the stimulated control group (0% inhibition). The compound inhibition curve was plotted using XLfit software and the IC50 of its inhibition was calculated.

[4] = Pharmacokinetic assay in mice (plasma and colon exposure); assay type: in vivo; conditions: mouse, fed female C57 mice, 25 mg/kg PO, 4 hours after dosing
Protocol: Test compounds were formulated into a 5 mg/mL dosing sample (suspension or solution) in a 20% HP-β-CD vehicle.
3 fed female C57 mice were each dosed 5 mL/kg by gavage (PO) at a dose of 25 mg/kg. Blood samples were collected 4 hours after dosing, and then animals were killed by CO2. Colons near the end of the rectum, approximately 4-6 cm in length, were dissected, rinsed with cold saline, blotted dry with absorbent paper, and weighed.
Concentrations of the test compounds in the plasma and intestinal homogenate sample were quantified by LC-MS/MS using an API-4500 mass spectrometer with a plasma limit of quantitation (LOQ) of 1 ng/mL.

[5] = colon homogenate, read-out: Colon exposure
[6] = plasma, LOQ 1 ng/mL, read-out: Plasma exposure

| Compound | IC50 [1] | IC50 [2] | IC50 [3] | concentration at 4 h [4, 5] | concentration at 4 h [4, 6] |
| --- | --- | --- | --- | --- | --- |
| NC(=O)c1ccc(Nc2nc(-c3c(F)cccc3Cl)n3cc[nH]c(=O)c23)cc1 [Compound 28, 4-((3-(2-chloro-6-fluorophenyl)-8-oxo-7,8-dihydroimidazo[1,5-a]pyrazin-1-yl)amino)benzamide] | 0.6 nM | 0.03 nM | 38 nM | 2850 ng/g | 0.015 µg/mL |
| O=C(c1ccc(Nc2nc(-c3c(F)cccc3F)n3cc[nH]c(=O)c23)cc1)N1CCOCC1 [Compound 1, 3-(2,6-difluorophenyl)-1-((4-(morpholine-4-carbonyl)phenyl)amino)imidazo[1,5-a]pyrazin-8(7H)-one] | 0.3 nM | 0.2 nM | 57 nM | 5210 ng/g | 0.249 µg/mL |
| CN1CCN(C(=O)c2ccc(Nc3nc(-c4c(F)cccc4F)n4cc[nH]c(=O)c34)cc2)CC1 [Compound 29, 3-(2,6-difluorophenyl)-1-((4-(4-methylpiperazine-1-carbonyl)phenyl)amino)imidazo[1,5-a]pyrazin-8(7H)-one] | 0.7 nM | 0.1 nM | 75 nM | 3920 ng/g | 0.075 µg/mL |
| NC(=O)c1ccc(Nc2nc(-c3c(F)cccc3F)n3cc[nH]c(=O)c23)cc1 [Compound 27, 4-((3-(2,6-difluorophenyl)-8-oxo-7,8-dihydroimidazo[1,5-a]pyrazin-1-yl)amino)benzamide] | 1.4 nM | 0.2 nM | 60 nM |  |  |
| Cn1cc(Nc2nc(-c3c(F)cccc3Cl)n3cc[nH]c(=O)c23)cn1 [Compound 26, 3-(2-chloro-6-fluorophenyl)-1-((1-methyl-1H-pyrazol-4-yl)amino)imidazo[1,5-a]pyrazin-8(7H)-one] | 2.9 nM | 0.7 nM | 149 nM |  |  |
| Cn1cc(Nc2nc(-c3c(F)cccc3F)n3cc[nH]c(=O)c23)cn1 [Compound 4, 3-(2,6-difluorophenyl)-1-((1-methyl-1H-pyrazol-4-yl)amino)imidazo[1,5-a]pyrazin-8(7H)-one] | 2 nM | 0.8 nM | 175 nM |  |  |
| Cn1cc(Nc2nc(-c3c(F)cccc3F)n3c2C(=O)NCC3)cn1 [Compound 5, 3-(2,6-difluorophenyl)-1-((1-methyl-1H-pyrazol-4-yl)amino)-6,7-dihydroimidazo[1,5-a]pyrazin-8(5H)-one] | 27 nM | 4.8 nM | 1310 nM |  |  |

Other lines, results leading:

| IC50 [1] | IC50 [2] | IC50 [3] | concentration at 4 h [4, 5] | concentration at 4 h [4, 6] | Compound |
| --- | --- | --- | --- | --- | --- |
| 0.6 nM | 0.4 nM | 3480 nM | 5090 ng/g | 0.018 µg/mL | CC(C)(C(=O)N1CCNCC1)c1ccc(Nc2nc(-c3c(F)cccc3F)n3cc[nH]c(=O)c23)cc1 [Compound 36, 3-(2,6-difluorophenyl)-1-((4-(2-methyl-1-oxo-1-(piperazin-1-yl)propan-2-yl)phenyl)amino)imidazo[1,5-a]pyrazin-8(7H)-one] |
| 0.6 nM | 0.1 nM | 65 nM | 2700 ng/g | 0.05 µg/mL | CC(C)(C(N)=O)c1ccc(Nc2nc(-c3c(F)cccc3F)n3cc[nH]c(=O)c23)cc1 [Compound 34, 2-(4-((3-(2,6-difluorophenyl)-8-oxo-7,8-dihydroimidazo[1,5-a]pyrazin-1-yl)amino)phenyl)-2-methylpropanamide] |
| 0.6 nM | 0.1 nM | 425 nM |  |  | O=C(c1ccc(Nc2nc(-c3c(F)cccc3Cl)n3cc[nH]c(=O)c23)cc1)N1CCNCC1 [Compound 32, 3-(2-chloro-6-fluorophenyl)-1-((4-(piperazine-1-carbonyl)phenyl)amino)imidazo[1,5-a]pyrazin-8(7H)-one] |
| 0.6 nM | 0.1 nM | 56 nM |  |  | CN1CCN(C(=O)c2ccc(Nc3nc(-c4c(F)cccc4Cl)n4cc[nH]c(=O)c34)cc2)CC1 [Compound 31, 3-(2-chloro-6-fluorophenyl)-1-((4-(4-methylpiperazine-1-carbonyl)phenyl)amino)imidazo[1,5-a]pyrazin-8(7H)-one] |
| 0.6 nM | 0.4 nM | 191 nM |  |  | CN1CCN(C(=O)C(C)(C)c2ccc(Nc3nc(-c4c(F)cccc4F)n4cc[nH]c(=O)c34)cc2)CC1 [Compound 35, 3-(2,6-difluorophenyl)-1-((4-(2-methyl-1-(4-methylpiperazin-1-yl)-1-oxopropan-2-yl)phenyl)amino)imidazo[1,5-a]pyrazin-8(7H)-one] |
| 4.5 nM | 0.5 nM | 4100 nM |  |  | O=C(O)c1ccc(Nc2nc(-c3c(F)cccc3F)n3cc[nH]c(=O)c23)cc1 [Compound 39, 4-((3-(2,6-difluorophenyl)-8-oxo-7,8-dihydroimidazo[1,5-a]pyrazin-1-yl)amino)benzoic acid] |
